For 22 molecules, Ki and IC50 results are on record in US10988477B2 (Merck Patent GmbH, priority 2018, dated 2021).

One test deals with GCN2 kinase (Homo sapiens, UniProt Q9P2K8). In words: GCN2 enzyme inhibition assay (Transcreener ADP2 fluorescence polarization). The note with it: compounds of Formula II; 280 μM ATP, 4 nM GCN2 kinase. The format is biochemical. The method in brief:
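ADP formation read by Transcreener FP after a 1 h, 25 °C kinase reaction containing 280 μM ATP, 200 μM (RS)7 substrate and 4 nM GCN2, pH 7.5 Tris buffer. Compounds (0–8 μM final) were added 10 min before ATP. Percent inhibition gave IC50 and apparent Ki via tight-binding fit.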

Test [1] addresses intracellular GCN2 (phosphorylation of the GCN2 substrate eIF2α) (Homo sapiens, UniProt Q9P2K8). The test is described as follows: GCN2 cellular inhibition assay (AlphaScreen SureFire P-eIF2α Ser51, borrelidin-treated U2OS cells). The conditions noted are these: compounds of Formula II; biomarker assay, phosphorylated eIF2α Ser51 in borrelidin-treated U2OS cells. The test is classed as cell-based. The method, boiled down: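 Compound effect on GCN2 is gauged by eIF2α Ser51 phosphorylation in borrelidin-challenged U2OS cells (10 μM, 1 h). Top compound level is 40 μM final.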

Chain of intracellular GCN2 (phosphorylation of the GCN2 substrate eIF2α) (Q9P2K8 whole entry): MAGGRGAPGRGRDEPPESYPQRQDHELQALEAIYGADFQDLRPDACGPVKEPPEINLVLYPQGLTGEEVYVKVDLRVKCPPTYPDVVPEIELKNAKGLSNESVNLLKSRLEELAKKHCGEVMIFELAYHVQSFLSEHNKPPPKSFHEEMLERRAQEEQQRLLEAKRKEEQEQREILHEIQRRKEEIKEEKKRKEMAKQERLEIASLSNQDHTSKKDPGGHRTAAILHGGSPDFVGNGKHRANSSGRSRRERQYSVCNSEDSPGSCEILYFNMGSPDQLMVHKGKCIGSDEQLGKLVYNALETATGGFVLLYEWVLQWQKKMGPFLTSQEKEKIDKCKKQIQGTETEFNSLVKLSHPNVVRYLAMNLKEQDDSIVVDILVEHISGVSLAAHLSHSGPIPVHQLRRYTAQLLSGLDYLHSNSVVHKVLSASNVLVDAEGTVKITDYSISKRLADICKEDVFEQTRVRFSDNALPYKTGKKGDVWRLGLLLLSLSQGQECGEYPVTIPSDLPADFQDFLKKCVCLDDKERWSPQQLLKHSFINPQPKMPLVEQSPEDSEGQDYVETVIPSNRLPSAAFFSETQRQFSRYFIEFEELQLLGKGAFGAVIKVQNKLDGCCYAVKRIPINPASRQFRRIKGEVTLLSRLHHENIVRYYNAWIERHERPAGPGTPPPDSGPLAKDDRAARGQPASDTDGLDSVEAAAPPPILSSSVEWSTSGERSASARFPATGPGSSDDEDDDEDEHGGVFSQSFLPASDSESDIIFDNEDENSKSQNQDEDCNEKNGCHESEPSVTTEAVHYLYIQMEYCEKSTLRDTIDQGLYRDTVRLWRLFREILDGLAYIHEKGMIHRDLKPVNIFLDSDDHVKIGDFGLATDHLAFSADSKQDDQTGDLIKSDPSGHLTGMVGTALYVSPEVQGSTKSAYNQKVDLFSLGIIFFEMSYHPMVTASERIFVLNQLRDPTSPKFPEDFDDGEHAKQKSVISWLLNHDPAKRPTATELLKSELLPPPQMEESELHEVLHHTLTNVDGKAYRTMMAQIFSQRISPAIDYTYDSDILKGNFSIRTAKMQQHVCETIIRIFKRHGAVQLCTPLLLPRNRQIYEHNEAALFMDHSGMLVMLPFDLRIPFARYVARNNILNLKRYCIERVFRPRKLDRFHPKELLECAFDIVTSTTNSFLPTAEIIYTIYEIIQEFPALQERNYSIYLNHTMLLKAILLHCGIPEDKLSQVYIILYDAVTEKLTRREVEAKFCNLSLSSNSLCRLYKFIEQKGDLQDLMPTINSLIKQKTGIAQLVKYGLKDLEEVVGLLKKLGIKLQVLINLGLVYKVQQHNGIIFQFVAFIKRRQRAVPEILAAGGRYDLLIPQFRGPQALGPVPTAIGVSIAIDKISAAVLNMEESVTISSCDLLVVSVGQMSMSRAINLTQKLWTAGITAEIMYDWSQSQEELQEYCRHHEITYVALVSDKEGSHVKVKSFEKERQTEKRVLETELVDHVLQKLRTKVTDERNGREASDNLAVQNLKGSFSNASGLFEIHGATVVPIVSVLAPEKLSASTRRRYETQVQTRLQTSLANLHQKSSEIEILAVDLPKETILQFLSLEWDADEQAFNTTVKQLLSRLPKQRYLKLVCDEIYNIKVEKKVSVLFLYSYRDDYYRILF
Chain of GCN2 kinase (Q9P2K8 whole entry): as above

The molecule `CC1C(CNS(C)(=O)=O)OCCN1c1cc(-c2cnc3ccc(C(F)F)nn23)ncn1` (centres unmarked) [II-346, N-((4-(6-(6-(Difluoromethyl)imidazo[1,2-b]pyridazin-3-yl)pyrimidin-4-yl)-3-methylmorpholin-2-yl)methyl)methanesulfonamide] returned a Ki on GCN2 kinase of 10 to 1000 nM. Moreover, the IC50 in test [1] was > 5000 nM.

Consider `NS(=O)(=O)NCC1CN(c2cc(-c3cnc4ccc(C(F)F)nn34)ncn2)CCO1` (centres unmarked) [II-347, N-((4-(6-(6-(Difluoromethyl)imidazo[1,2-b]pyridazin-3-yl)pyrimidin-4-yl)morpholin-2-yl)methyl)sulfuric diamide], for which the Ki at GCN2 kinase was < 10 nM. The IC50 in test [1] was < 500 nM.

Turning to `CN(C)S(=O)(=O)NCC1CCCN(c2cc(-c3cnc4ccc(C(F)F)nn34)ncn2)C1` (centres unmarked) [II-348, 3-((1-(6-(6-(Difluoromethyl)imidazo[1,2-b]pyridazin-3-yl)pyrimidin-4-yl)piperidin-3-yl)methyl)-1,1-dimethylsulfuric Diamide], at GCN2 kinase, the inhibitory constant (Ki) was in the range of 10 to 1000 nM. This molecule gave a concentration for half-maximal inhibition (IC50) in test [1] of 500 to 5000 nM.

With `CN(C)S(=O)(=O)NCC1CN(c2cc(-c3cnc4ccc(C(F)F)nn34)ncn2)CCO1` (centres unmarked) [II-349, 3-((4-(6-(6-(Difluoromethyl)imidazo[1,2-b]pyridazin-3-yl)pyrimidin-4-yl)morpholin-2-yl)methyl)-1,1-dimethyl sulfuric diamide], the inhibitory constant (Ki) on GCN2 kinase was in the range of 10 to 1000 nM. In test [1], this molecule gave a half-inhibitory concentration (IC50) of 500 to 5000 nM.

On to `OC1CCN(CCC2CCN(c3cc(-c4cnc5ccc(C(F)F)nn45)ncn3)CC2)C1` (centres unmarked) [II-351, 1-(2-(1-(6-(6-(Difluoromethyl)imidazo[1,2-b]pyridazin-3-yl)pyrimidin-4-yl)piperidin-4-yl)ethyl)pyrrolidin-3-ol], for which, at GCN2 kinase, the Ki lay within 10 to 1000 nM. Also, the IC50 in test [1] is > 5000 nM.

As to `OC1CCN(C2CCN(c3cc(-c4cnc5ccc(C(F)F)nn45)ncn3)C2)C1` (centres unmarked) [II-352, 1′-(6-(6-(Difluoromethyl)imidazo[1,2-b]pyridazin-3-yl)pyrimidin-4-yl)-[1,3′-bipyrrolidin]-3-ol], the Ki at GCN2 kinase fell in the range of 10 to 1000 nM. Besides, in test [1], the IC50 was > 5000 nM.

For `O=C1CN(CC2CCN(c3cc(-c4cnc5ccc(C(F)F)nn45)ncn3)C2)CCN1` (centres unmarked) [II-353, 4-((1-(6-(6-(Difluoromethyl)imidazo[1,2-b]pyridazin-3-yl)pyrimidin-4-yl)pyrrolidin-3-yl)methyl)piperazin-2-one], the inhibition constant Ki on GCN2 kinase is 10 to 1000 nM. Besides, the IC50 in test [1] was > 5000 nM.

On GCN2 kinase, `C[C@@H]1CCCCN1c1cc(-c2cnc3ccc(C(F)F)nn23)ncn1` [II-354, (R)-6-(Difluoromethyl)-3-(6-(2-methylpiperidin-1-yl)pyrimidin-4-yl)imidazo[1,2-b]pyridazine] yielded a Ki of 10 to 1000 nM. Further, the 50% inhibitory concentration (IC50) in test [1] was > 5000 nM.

At GCN2 kinase, `FC(F)c1ccc2ncc(-c3cc(C4=CCOCC4)ncn3)n2n1` [II-357, 6-(Difluoromethyl)-3-(6-(3,6-dihydro-2H-pyran-4-yl)pyrimidin-4-yl)imidazo[1,2-b]pyridazine] showed a Ki of 10 to 1000 nM. For the same molecule, the IC50 in test [1] was > 5000 nM.

`FC(F)c1ccc2ncc(-c3cc(C4CCOCC4)ncn3)n2n1` [II-358, 6-(Difluoromethyl)-3-(6-tetrahydropyran-4-ylpyrimidin-4-yl)imidazo[1,2-b]pyridazine] showed a Ki on GCN2 kinase of 10 to 1000 nM. The IC50 in test [1] was > 5000 nM.

On GCN2 kinase, `OCC1CN(c2cc(-c3cnc4ccc(C(F)F)nn34)ncn2)CC2(CC2)O1` (centres unmarked) [II-359, (7-(6-(6-(Difluoromethyl)imidazo[1,2-b]pyridazin-3-yl)pyrimidin-4-yl)-4-oxa-7-azaspiro[2.5]octan-5-yl)methanol] showed a Ki of 10 to 1000 nM. Besides, the half-inhibitory concentration (IC50) in test [1] was > 5000 nM.

With `CS(=O)(=O)NC1CCCN(c2cc(-c3cnc4ccc(C(F)F)nn34)ncn2)C1` (centres unmarked) [II-362, N-(1-(6-(6-(Difluoromethyl)imidazo[1,2-b]pyridazin-3-yl)pyrimidin-4-yl)piperidin-3-yl)methanesulfonamide], the Ki on GCN2 kinase lay within 10 to 1000 nM. Also, the IC50 in test [1] is 500 to 5000 nM.

On GCN2 kinase, `CC1CC(C)(O)C(CNS(C)(=O)=O)CN1c1cc(-c2cnc3ccc(C(F)F)nn23)ncn1` (centres unmarked) [II-365, N-((1-(6-(6-(Difluoromethyl)imidazo[1,2-b]pyridazin-3-yl)pyrimidin-4-yl)-4-hydroxy-4,6-dimethylpiperidin-3-yl)methyl)methanesulfonamide] registered an inhibition constant (Ki) of 10 to 1000 nM. The IC50 in test [1] was > 5000 nM.

`CC1C(CNS(C)(=O)=O)C(C)(O)CCN1c1cc(-c2cnc3ccc(C(F)F)nn23)ncn1` (centres unmarked) [II-366, N-((1-(6-(6-(Difluoromethyl)imidazo[1,2-b]pyridazin-3-yl)pyrimidin-4-yl)-4-hydroxy-2,4-dimethylpiperidin-3-yl)methyl)methanesulfonamide]: the Ki at GCN2 kinase is < 10 nM. Also, in test [1], the half-maximal inhibitory concentration (IC50) was < 500 nM.

Regarding `CC1CC(C)(O)C(CNS(C)(=O)=O)CN1c1cc(-c2cnc3ccc(C(F)F)nn23)ncn1` (centres unmarked) [II-367, N-((1-(6-(6-(Difluoromethyl)imidazo[1,2-b]pyridazin-3-yl)pyrimidin-4-yl)-4-hydroxy-4,6-dimethylpiperidin-3-yl)methyl)methanesulfonamide], the inhibition constant (Ki) at GCN2 kinase was in the range of 10 to 1000 nM. The same molecule showed an IC50 in test [1] of 500 to 5000 nM.

With `CC(=O)N1CCN(c2cc(-c3cnc4ccc(C(F)F)nn34)ncn2)C(C)C1` (centres unmarked) [II-368, 1-(4-(6-(6-(Difluoromethyl)imidazo[1,2-b]pyridazin-3-yl)pyrimidin-4-yl)-3-methylpiperazin-1-yl)ethan-1-one], the Ki on GCN2 kinase lay within 10 to 1000 nM. Moreover, the half-inhibitory concentration (IC50) in test [1] is > 5000 nM.

On GCN2 kinase, `CS(=O)(=O)N1CCC2C(C1)OCCN2c1cc(-c2cnc3ccc(C(F)F)nn23)ncn1` (centres unmarked) [II-369, 1-(6-(6-(Difluoromethyl)imidazo[1,2-b]pyridazin-3-yl)pyrimidin-4-yl)-6-(methylsulfonyl)octahydro-1H-pyrido[3,4-b][1,4]oxazine] displayed a Ki of 10 to 1000 nM. For the same molecule, the concentration for half-maximal inhibition (IC50) in test [1] was > 5000 nM.

At GCN2 kinase, `CS(=N)(=O)CC1CCCN(c2cc(-c3cnc4ccc(C(F)F)nn34)ncn2)C1` (centres unmarked) [II-370, ((1-(6-(6-(Difluoromethyl)imidazo[1,2-b]pyridazin-3-yl)pyrimidin-4-yl)piperidin-3-yl)methyl)(imino)(methyl)-λ^6-sulfanone] gave an inhibition constant (Ki) of 10 to 1000 nM. This molecule came in with a half-inhibitory concentration (IC50) in test [1] of 500 to 5000 nM.

For `CC1C(CO)CCCN1c1cc(-c2cnc3ccc(C(F)F)nn23)ncn1` (centres unmarked) [II-373, (1-(6-(6-(Difluoromethyl)imidazo[1,2-b]pyridazin-3-yl)pyrimidin-4-yl)-2-methylpiperidin-3-yl)methanol], the Ki at GCN2 kinase is < 10 nM. Besides, the half-inhibitory concentration (IC50) in test [1] was in the range of 500 to 5000 nM.

Turning to `CS(=O)(=O)NCC1CN(c2cc(-c3cnc4ccc(C(F)F)nn34)ncn2)CC2(CC2)O1` (centres unmarked) [II-375, N-((7-(6-(6-(Difluoromethyl)imidazo[1,2-b]pyridazin-3-yl)pyrimidin-4-yl)-4-oxa-7-azaspiro[2.5]octan-5-yl)methyl)methanesulfonamide], on GCN2 kinase, the inhibition constant Ki is < 10 nM. Moreover, the half-inhibitory concentration (IC50) in test [1] was < 500 nM.

Turning to `NS(=O)(=O)C1CCCN(c2cc(-c3cnc4ccc(C(F)F)nn34)ncn2)C1` (centres unmarked) [II-376, 1-(6-(6-(Difluoromethyl)imidazo[1,2-b]pyridazin-3-yl)pyrimidin-4-yl)piperidine-3-sulfonamide], the inhibition constant (Ki) at GCN2 kinase lay within 10 to 1000 nM. The IC50 in test [1] lay in the range of 500 to 5000 nM.

`NC(=O)C1CCCN(c2cc(-c3cnc4ccc(C(F)F)nn34)ncn2)C1` (centres unmarked) [II-378, 1-(6-(6-(Difluoromethyl)imidazo[1,2-b]pyridazin-3-yl)pyrimidin-4-yl)piperidine-3-carboxamide] came in with an inhibition constant (Ki) at GCN2 kinase of 10 to 1000 nM. Also, the IC50 in test [1] lay in the range of 500 to 5000 nM.
